Molecular target: T1, Hormone-sensitive lipase (HSL) (Homo sapiens, UniProt Q05469)
T1 sequence (Q05469 1-1076): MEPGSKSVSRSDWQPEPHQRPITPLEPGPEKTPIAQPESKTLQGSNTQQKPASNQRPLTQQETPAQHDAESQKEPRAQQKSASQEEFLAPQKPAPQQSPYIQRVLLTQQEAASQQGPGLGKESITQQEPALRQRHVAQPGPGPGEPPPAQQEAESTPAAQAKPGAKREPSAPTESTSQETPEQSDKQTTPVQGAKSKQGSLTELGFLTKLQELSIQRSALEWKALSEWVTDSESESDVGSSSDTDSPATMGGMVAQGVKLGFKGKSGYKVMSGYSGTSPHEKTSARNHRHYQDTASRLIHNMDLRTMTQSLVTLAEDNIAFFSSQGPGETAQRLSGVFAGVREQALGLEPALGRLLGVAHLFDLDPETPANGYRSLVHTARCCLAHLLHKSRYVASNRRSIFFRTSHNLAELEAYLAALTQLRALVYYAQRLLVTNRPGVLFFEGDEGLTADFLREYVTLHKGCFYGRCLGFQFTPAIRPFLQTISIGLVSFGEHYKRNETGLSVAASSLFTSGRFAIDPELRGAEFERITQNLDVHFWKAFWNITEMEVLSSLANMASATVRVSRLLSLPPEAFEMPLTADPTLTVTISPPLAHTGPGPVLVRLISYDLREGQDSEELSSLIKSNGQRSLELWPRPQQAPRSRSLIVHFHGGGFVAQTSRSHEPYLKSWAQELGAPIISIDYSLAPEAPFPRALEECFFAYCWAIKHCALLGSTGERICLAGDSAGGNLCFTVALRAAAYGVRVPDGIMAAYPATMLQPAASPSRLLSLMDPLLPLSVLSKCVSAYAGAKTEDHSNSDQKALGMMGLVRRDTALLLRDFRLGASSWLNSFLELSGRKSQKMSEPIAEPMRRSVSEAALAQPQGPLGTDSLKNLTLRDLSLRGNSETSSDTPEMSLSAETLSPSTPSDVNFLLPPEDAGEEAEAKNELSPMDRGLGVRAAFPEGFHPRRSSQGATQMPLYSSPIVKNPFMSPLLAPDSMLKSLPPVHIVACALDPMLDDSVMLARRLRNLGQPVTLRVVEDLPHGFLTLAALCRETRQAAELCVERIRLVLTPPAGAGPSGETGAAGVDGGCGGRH
Assay: Hormone-sensitive lipase (HSL) inhibition assay, 3H-labeled triolein or MOME substrate
Assay type: biochemical
Details: read-out: HSL inhibition (IC50)
Outline: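 HSL enzyme (0.12 mg/ml stock) preincubated with inhibitor in PED-BSA, then given sonicated PC:PI-emulsified ³H-triolein or ³H-MOME in 0.1 M potassium phosphate pH 7 with BSA. 30 min at 37 °C; released radiolabelled fatty acid extracted in methanol/chloroform/heptane at pH 10.5 and scintillation counted.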

Row | SMILES | IC50 [nM]
1 | CC(C)(C)OC(=O)Nc1ccc(OC(=O)NN2CCc3ccccc3C2)cc1 [Example 17, (3,4-Dihydro-1H-isoquinolin-2-yl)-carbamic Acid 4-tert-butoxycarbonylamino-phenyl Ester] | 3
2 | O=C(NN1CCc2ccccc2C1)Oc1ccc(Cl)cc1 [Example 6, (3,4-Dihydro-1H-isoquinolin-2-yl)-carbamic acid 4-chloro-phenyl Ester] | 19
3 | CC1Cc2ccccc2CN1NC(=O)Oc1ccc(Cl)cc1 (stereo not drawn) [Example 23, (3-Methyl-3,4-dihydro-1H-isoquinolin-2-yl)-carbamic Acid 4-chloro-phenyl Ester] | 40
